Target: T1, carbonic anhydrase II (CAII) (Homo sapiens, UniProt P00918)
T1 construct: gene CA2; wild-type
Test: […] exchange between CO2 and water by membrane-inlet mass spectrometry; Henderson tight-binding analysis
Assay type: biochemical

SMILES: CCc1cc2c(cc1OS(N)(=O)=O)CC[C@@H]1C2CC[C@]2(C)[C@@H](O)C=C[C@@H]12 (stereo partly shown) [ESE-15-ol, 2-ethyl-3-O-sulphamoyl-estra-1,3,5(10),15-tetraen-17-ol]
- Ki: 167 ± 19 nM

Reference: publication PMC3531393, “In Vitro Evaluation of ESE-15-ol, an Estradiol Analogue with Nanomolar Antimitotic and Carbonic Anhydrase Inhibitory Activity” (PLoS ONE, 2012)
